Assay results published in ChEMBL document CHEMBL1201862, “PubChem BioAssay data set” (2004).
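Grown in 96-well plates, cells were treated for 48 hours with each compound at five concentrations. Insufficient inhibition: endpoint recorded as highest concentration tested. At the GI50, growth is halved.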 Activity calls are given as the source filed them. Cut-off read from the data, not from the text of the source: active = GI50 up to about 1.1 µM and inactive = higher.

Key:
Assay in all cases: growth of human tumour cells (NCI), 48 h
U-251 = test system: U-251
MCF7 = test system: MCF7
786-0 = test system: 786-0
SF-295 = test system: SF-295
UACC-62 = test system: UACC-62
COLO 205 = test system: COLO 205
OVCAR-3 = test system: OVCAR-3
DU-145 = test system: DU-145
NCI-H23 = test system: NCI-H23
HCT-15 = test system: HCT-15
SK-MEL-5 = test system: SK-MEL-5
NCI-H460 = test system: NCI-H460
RXF 393 = test system: RXF 393
SK-OV-3 = test system: SK-OV-3
IGROV-1 = test system: IGROV-1
MDA-N = test system: MDA-N
MDA-MB-231 = test system: MDA-MB-231
CCRF-CEM = test system: CCRF-CEM
NCI-H226 = test system: NCI-H226

| SMILES | GI50 (U-251) | GI50 (MCF7) | GI50 (786-0) | GI50 (SF-295) | GI50 (UACC-62) | GI50 (COLO 205) | GI50 (OVCAR-3) | GI50 (DU-145) | GI50 (NCI-H23) | GI50 (HCT-15) [µM] | GI50 (SK-MEL-5) | GI50 (NCI-H460) | GI50 (RXF 393) | GI50 (SK-OV-3) | GI50 (IGROV-1) | GI50 (MDA-N) | GI50 (MDA-MB-231) | GI50 (CCRF-CEM) | GI50 (NCI-H226) |
| --- | --- | --- | --- | --- | --- | --- | --- | --- | --- | --- | --- | --- | --- | --- | --- | --- | --- | --- | --- |
| O=C(/C=C/C(=O)N1CCCC1)N1CCCC1 | > 100 µM (inactive) | > 100 µM (inactive) | > 100 µM (inactive) | > 100 µM (inactive) | > 100 µM (inactive) | > 100 µM (inactive) | > 100 µM (inactive) | > 100 µM (inactive) | > 100 µM (inactive) | > 100 | > 100 µM (inactive) | > 100 µM (inactive) | > 100 µM (inactive) | > 100 µM (inactive) | > 100 µM (inactive) | > 100 µM (inactive) | > 100 µM (inactive) | > 100 µM (inactive) |  |
| O=c1oc2ccc(Cl)cc2c2ccccc12 | 15.1 µM (inactive) | 53.2 µM (inactive) | 40.1 µM (inactive) | 34.4 µM (inactive) | 71.6 µM (inactive) | 65.8 µM (inactive) | > 100 µM (inactive) | > 100 µM (inactive) | 23.8 µM (inactive) | > 100 | 67.6 µM (inactive) | > 100 µM (inactive) | 22.1 µM (inactive) |  | 71.8 µM (inactive) | > 100 µM (inactive) | 17.4 µM (inactive) | > 100 µM (inactive) | 27.5 µM (inactive) |
| C/C(=N\NC(=S)N1CCCCCCCCCCCC1)c1ccccn1 | 0.0673 µM (active) | 0.0865 µM (active) | 0.173 µM (active) | 0.324 µM (active) |  | 0.0522 µM (active) | 0.0346 µM (active) | 0.533 µM (active) | 0.379 µM (active) | 0.216 | 0.2 µM (active) | 0.256 µM (active) | 0.0769 µM (active) |  | 0.212 µM (active) | 0.126 µM (active) | 0.169 µM (active) | 0.0431 µM (active) | 0.199 µM (active) |
| C[C@@]12C=CC3C/C(=N\C(N)=S)C=C(CCCC4OCCO4)[C@]3(CC1)C2 (stereo partly specified) | 20.5 µM (inactive) | 10.8 µM (inactive) | 19.3 µM (inactive) | 23.1 µM (inactive) | 16.2 µM (inactive) | 13.2 µM (inactive) | 15.2 µM (inactive) | 21 µM (inactive) | 21.3 µM (inactive) | 17.7 | 12.4 µM (inactive) | 15.6 µM (inactive) | 16 µM (inactive) | 49.2 µM (inactive) | 14.8 µM (inactive) | 16 µM (inactive) | 20.3 µM (inactive) |  | 23.3 µM (inactive) |
| CC(C)(C)OC(=O)NC(Cc1ccc(O)cn1)C(=O)O (stereo unspecified) | > 100 µM (inactive) | > 100 µM (inactive) | > 100 µM (inactive) | > 100 µM (inactive) |  | > 100 µM (inactive) | > 100 µM (inactive) | > 100 µM (inactive) | > 100 µM (inactive) | > 100 | > 100 µM (inactive) | > 100 µM (inactive) | > 100 µM (inactive) |  | > 100 µM (inactive) | > 100 µM (inactive) | > 100 µM (inactive) | > 10 µM (inactive) | > 100 µM (inactive) |
| COC(=O)CCCc1ccc2c(c1)CCC2 | > 100 µM (inactive) | > 100 µM (inactive) | > 100 µM (inactive) | > 100 µM (inactive) | > 100 µM (inactive) | > 100 µM (inactive) | > 100 µM (inactive) | > 100 µM (inactive) | > 100 µM (inactive) | > 100 | > 100 µM (inactive) | > 100 µM (inactive) |  | > 100 µM (inactive) | > 100 µM (inactive) | > 100 µM (inactive) | > 100 µM (inactive) | > 100 µM (inactive) | > 100 µM (inactive) |
| c1ccc(C(CCN2CC3CCC(CC3)C2)c2ccccc2)cc1 | 18.2 µM (inactive) | 15.6 µM (inactive) | 17.3 µM (inactive) | 26 µM (inactive) | 17.1 µM (inactive) | 12.6 µM (inactive) | 20.2 µM (inactive) | 38.4 µM (inactive) | 18 µM (inactive) | 21.8 | 16.5 µM (inactive) | 15 µM (inactive) | 18.8 µM (inactive) |  | 31 µM (inactive) | 23 µM (inactive) | 18.9 µM (inactive) |  | 19.6 µM (inactive) |
| COc1ccc2c(c1)CC[C@@H]1[C@@H]2CC[C@]2(C)C(=O)/C(=C/c3ccc(C#N)cc3)C[C@@H]12 | > 100 µM (inactive) | > 100 µM (inactive) | > 100 µM (inactive) | 81.3 µM (inactive) | > 100 µM (inactive) | > 100 µM (inactive) |  | > 100 µM (inactive) | > 100 µM (inactive) | > 100 | > 100 µM (inactive) | > 100 µM (inactive) | > 100 µM (inactive) | > 100 µM (inactive) | > 100 µM (inactive) | > 100 µM (inactive) | > 100 µM (inactive) | > 100 µM (inactive) | > 100 µM (inactive) |
